Key:
KDR Resisant An. Gambiae = test: Bottle toxicity assay (Example 8), knockdown resistant mosquitoes; type: in vivo, Anopheles gambiae
Description: Several compounds were tested to determine their toxic effect on knockdown resistant Anopheles gambiae mosquitoes and susceptible mosquitoes. Acetone and different amounts of pesticides were added to 250 ml bottles. In one bottle, only acetone was added as a control. The bottles were rotated in all directions while uncapped until all acetone was evaporated and the insecticide was coated onto the inside surfaces of the bottle. A number of knockdown resistant Anopheles gambiae mosquitoes were added to the bottle. The number of dead mosquitoes was recorded at 1 hour and 24 hours.

[1] = system: Ae. aegypti Isla mujeres strain (metabolically pyrethroid resistant); test: Toxicity assay on treated netting (Example 7), Isla mujeres strain; type: in vivo
Description: (§1) Several compounds were tested to determine their toxic effect on Ae. aegypti mosquitoes. Three mosquito strains were tested—Houston which is pyrethroid susceptible, That which is pyrethroid tolerant and Isla Mujer which is metabolically pyrethroid resistant.
(§2) The toxicity assay involved a single chamber to which treated netting was added. Twenty (20) mosquitoes were transferred to the chamber. After 1 hour, the number of knocked down mosquitoes was recorded and all mosquitoes were transferred to holding cartoons. The mosquitoes were given a 10% sucrose-soaked cotton ball and returned to the insectary. Mortaility was measured after 24 hours. A control assay using acetone-treated netting was used. Six replicates were performed at each treatment concentration.

[2] = system: Ae. aegypti Thai strain (pyrethroid tolerant); test: Toxicity assay on treated netting (Example 7), Thai strain; type: in vivo
Description: as §1, §2

[3] = system: female Aedes aegypti (Thailand strain) mosquitoes; test: Contact irritancy and spatial repellency screening (Example 4); type: in vivo; conditions: Dosage 25 nmol/cm^2; mapped with 3000 other compounds
Description: (§3) Four compounds of formula (I) were tested for contact irritancy (i.e., movement away from the source after physical contact) at low doses on female Aedes aegypti (Thailand strain) mosquitoes. The contact irritant response was determined by use of the contact irritant assay disclosed by Grieco et al. in “A New Classification System for the Actions of IRS Chemicals Traditionally Used for Malaria Control,” Plos One, Issue 8 (2007) (available at www.plosone.org). The assay used was a cylindrical assembly that included a metal treatment end to which 10 mosquitoes were introduced and a clear receiving chamber. The treatment end included a netting strip (nylon organdy) that was treated with the insecticide of interest at the relevant dose. A butterfly valve separated the treatment end from the remainder of the assembly.
(§4) The four compounds of formula I described in Example 2 were tested for spatial repellency (directed movement away from the chemical source without the insect making physical contact with the treated surface) at low doses on female Aedes aegypti (Thailand strain) mosquitoes. The spatial repellency response was determined by use of the spatial repellency assay disclosed by Grieco et al. in “A New Classification System for the Actions of IRS Chemicals Traditionally Used for Malaria Control” in Plos One, Issue 8 (2007) (available at www.plosone.org) which is incorporated herein by reference for all relevant and consistent purposes. The assay used was a cylindrical assembly that included a treatment chamber at one end and a control chamber at the other end. The treatment chamber included a netting strip (nylon organdy) that was treated with the insecticide of interest at the relevant dose. The treatment chamber and control chamber were connected by a clear cylinder and were separated from the clear cylinder by butterfly valves. Twenty (20) mosquitoes were introduced into the clear central chamber and the butterfly valves were opened after 30 seconds. After 10 minutes, the valves were closed and the number of mosquitoes in each chamber was counted.
Dosage was 25 nmol/cm^2. Several known compounds were also mapped for comparison—alphacypermethrin, cypermethrin, propoxur, bendiocarb, permethrin, SS220, DDT, deet and chlorpyrifos.

[4] = system: Ae. Aegypti strains Houston, That and Isla Mujer; test: Spatial repellency on metabolically resistant mosquitoes (Example 6); type: in vivo
Description: as §4
(§5) The spatial repellency protocol of Example 3 was used to determine spatial repellency against mosquitoes (Ae. Aegypti) that had acquired metabolic resistance against pyrethroids. DDT and transfluthrin were also tested. Three mosquito strains were tested—Houston which is pyrethroid susceptible, That which is pyrethroid tolerant and Isla Mujer which is metabolically pyrethroid resistant.

[5] = system: Ae. aegypti Houston strain (pyrethroid susceptible); test: Toxicity assay on treated netting (Example 7), Houston strain; type: in vivo
Description: as §1, §2

[6] = system: Ae. Aegypti, Isla Mujer strain (metabolically pyrethroid resistant); test: Contact irritancy on metabolically resistant mosquitoes (Example 5); type: in vivo
Description: as §3
Each composition was applied to the netting strip at a varied dose via a 1.5 ml acetone solution. Four (4) treatment concentrations were used—0.0025 nmol/cm^2, 0.025 nmol/cm^2, 0.25 nmol/cm^2 and 2.5 nmol/cm^2. Netting was allowed to dry for 15 minutes prior to placement in the cylinder. Control assays were performed with netting treated with acetone only.
For each run, 10 mosquitoes were transferred into the treatment end of the assembly and, after 30 seconds, the butterfly valve was opened. The valve was closed after 10 minutes and the number of mosquitoes in the clear end (i.e., the number of escaped mosquitoes) was tested.
as §5, with “contact irritancy” for “spatial repellency”, “2” for “3”, “Alphacypermethrin” for “DDT”

[7] = Dose 0.025 nm/cm^2, Time 1 hour
[8] = Dose 0.025 nm/cm^2, Time 24 hours
[9] = Dose 0.0725 nm/cm^2, Time 1 hour
[10] = Dose 0.0725 nm/cm^2, Time 24 hours
[11] = Dose 0.125 nm/cm^2, Time 1 hour
[12] = Dose 0.125 nm/cm^2, Time 24 hours
[13] = Dose 0.25 nm/cm^2, Time 24 hours
[14] = Dose 2.5 nm/cm^2, Time 24 hours

CC1(C)C(C=C(Cl)C(F)(F)F)C1C(=O)OCc1ccc(F)c(C(F)(F)F)c1F (centres unmarked) [Compound 1405]
KDR Resisant An. Gambiae (% dead (SE)) (KDR Resisant An. Gambiae; Dose 0.00025 μg/bottle, Strain Tested F123, Time 1 hour): 55% | KDR Resisant An. Gambiae (% dead (SE)) (KDR Resisant An. Gambiae; Dose 0.00025 μg/bottle, Strain Tested F123, Time 24 hours): 37% | KDR Resisant An. Gambiae (% dead (SE)) (KDR Resisant An. Gambiae; Dose 0.0025 μg/bottle, Strain Tested F122, Time 1 hour): 100% | KDR Resisant An. Gambiae (% dead (SE)) (KDR Resisant An. Gambiae; Dose 0.0025 μg/bottle, Strain Tested F122, Time 24 hours): 66% | KDR Resisant An. Gambiae (% dead (SE)) (KDR Resisant An. Gambiae; Dose 0.0025 μg/bottle, Strain Tested F123, Time 1 hour): 92% | KDR Resisant An. Gambiae (% dead (SE)) (KDR Resisant An. Gambiae; Dose 0.0025 μg/bottle, Strain Tested F123, Time 24 hours): 100% | KDR Resisant An. Gambiae (% dead (SE)) (KDR Resisant An. Gambiae; Dose 0.025 μg/bottle, Strain Tested F122, Time 1 hour): 100% | KDR Resisant An. Gambiae (% dead (SE)) (KDR Resisant An. Gambiae; Dose 0.025 μg/bottle, Strain Tested F122, Time 24 hours): 100% | KDR Resisant An. Gambiae (% dead (SE)) (KDR Resisant An. Gambiae; Dose 0.025 μg/bottle, Strain Tested F123, Time 1 hour): 100% | KDR Resisant An. Gambiae (% dead (SE)) (KDR Resisant An. Gambiae; Dose 0.025 μg/bottle, Strain Tested F123, Time 24 hours): 100% | KDR Resisant An. Gambiae (% dead (SE)) (KDR Resisant An. Gambiae; Dose 0.25 μg/bottle, Strain Tested F122, Time 1 hour): 100% | KDR Resisant An. Gambiae (% dead (SE)) (KDR Resisant An. Gambiae; Dose 0.25 μg/bottle, Strain Tested F122, Time 24 hours): 100% | KDR Resisant An. Gambiae (% dead (SE)) (KDR Resisant An. Gambiae; Dose 0.25 μg/bottle, Strain Tested F123, Time 1 hour): 100% | KDR Resisant An. Gambiae (% dead (SE)) (KDR Resisant An. Gambiae; Dose 0.25 μg/bottle, Strain Tested F123, Time 24 hours): 100% | KDR Resisant An. Gambiae (% dead (SE)) (KDR Resisant An. Gambiae; Dose 2.5 μg/bottle, Strain Tested F122, Time 1 hour): 100% | KDR Resisant An. Gambiae (% dead (SE)) (KDR Resisant An. Gambiae; Dose 2.5 μg/bottle, Strain Tested F122, Time 24 hours): 100% | KDR Resisant An. Gambiae (% dead (SE)) (KDR Resisant An. Gambiae; Dose 2.5 μg/bottle, Strain Tested F123, Time 1 hour): 100% | KDR Resisant An. Gambiae (% dead (SE)) (KDR Resisant An. Gambiae; Dose 2.5 μg/bottle, Strain Tested F123, Time 24 hours): 100% | KDR Resisant An. Gambiae (% dead (SE)) (KDR Resisant An. Gambiae; Dose 25 μg/bottle, Strain Tested F123, Time 1 hour): 100% | KDR Resisant An. Gambiae (% dead (SE)) (KDR Resisant An. Gambiae; Dose 25 μg/bottle, Strain Tested F123, Time 24 hours): 100% | effectiveness against knockdown resistant strains (KDR Resisant An. Gambiae; summary of Table 3): effective against knockdown resistant strains | Isla mujeres (% dead (SE)) [1, 7]: 100% | Isla mujeres (% dead (SE)) [1, 8]: 11.84% | Isla mujeres (% dead (SE)) [1, 9]: 100% | Isla mujeres (% dead (SE)) [1, 10]: 9.69% | Isla mujeres (% dead (SE)) [1, 11]: 100% | Isla mujeres (% dead (SE)) [1, 12]: 9.89% | Isla mujeres (% dead (SE)) ([1]; Dose 0.25 nm/cm^2, Time 1 hour): 100% | Isla mujeres (% dead (SE)) [1, 13]: 100% | Isla mujeres (% dead (SE)) ([1]; Dose 2.5 nm/cm^2, Time 1 hour): 100% | Isla mujeres (% dead (SE)) [1, 14]: 100% | toxicity to resistant populations compared with standard compounds ([1]; summary of Table 2): more toxic to resistant populations than permethrin, matfluthrin and transfluthrin | Thai (% dead (SE)) [2, 7]: 83.3% | Thai (% dead (SE)) [2, 8]: 15% | Thai (% dead (SE)) [2, 9]: 100% | Thai (% dead (SE)) [2, 10]: 100% | Thai (% dead (SE)) [2, 11]: 100% | Thai (% dead (SE)) [2, 12]: 100% | Thai (% dead (SE)) ([2]; Dose 2.5 nm/cm^2, Time 1 hour): 100% | Thai (% dead (SE)) [2, 14]: 100% | contact irritancy and spatial repellency relative to screened compounds (FIG. 3) [3]: superior contact irritancy and spatial repellency relative to most screened compounds | spatial repellency, all strains (FIG. 5) [4]: spatial repellants for all strains | Houston (% dead (SE)) [5, 7]: 100% | Houston (% dead (SE)) [5, 8]: 100% | Houston (% dead (SE)) [5, 9]: 100% | Houston (% dead (SE)) [5, 10]: 100% | Houston (% dead (SE)) [5, 11]: 100% | Houston (% dead (SE)) [5, 12]: 100% | Houston (% dead (SE)) ([5]; Dose 0.25 nm/cm^2, Time 1 hour): 100% | Houston (% dead (SE)) [5, 13]: 100% | Houston (% dead (SE)) ([5]; Dose 2.5 nm/cm^2, Time 1 hour): 100% | Houston (% dead (SE)) [5, 14]: 100% | contact irritancy, resistant strain (FIG. 4) [6]: effective in resistant strains
